Experimental data reported in patent US4806538A, “Piperazine compound as PAF-antagonist” (Fujisawa Pharmaceutical Co., Ltd., priority 1984, dated 1989).
Converted amounts (≈) assume the structure as drawn.

Assays:
[1] = tested on: Platelet aggregation induced with PAF; assay: Test 1: inhibition of PAF-induced platelet aggregation in platelet rich plasma; assay type: cell-based, Japanese white rabbit; details: Oryctolagus cuniculus, rabbit PRP, 5×10^5 cells/mm^3, final concentration of PAF usually 20 nM
Procedure: (Inhibition of platelet aggregation)
Blood was collected through the polyethylene catheter introduced into the carotid artery of male Japanese white rabbit (2.5 to 3 kg body weight). The blood was anticoagulated with 1 volume of 3.8% sodium citrate to 9 volume of blood. Platelet rich plasma (PRP) was prepared by centrifugation of the blood at 150 g for 10 minutes at room temperature. The PRP was diluted with platelet poor plasma obtained by further centrifugation of the blood at 1,000 g for 20 minutes. The platelet number was 5×10^5 cells/mm^3. Platelet aggregation induced with PAF was measured by the nephelometric technique of Born and Cross [cf. Journal of Physiology 168, 178-188 (1963)] using HKK Hema tracer (trade name, made by Niko Bioscience Inc.).
Activities of inhibitors were expressed as IC50 value, i.e. concentrations required to inhibit the platelet aggregation response by 50%. The final concentration of PAF was usually 20 nM.

[2] = tested on: vascular permeability increase induced by intradermally injected PAF; assay: Test 4: inhibition of vascular permeability increase induced by intradermally injected PAF in mice (test compound orally); assay type: in vivo, ddY mice; details: 100 mg/kg orally, 30 minutes before Evans blue; PAF 50 ng intradermally; 30 minutes after PAF
Procedure: (§1) (Inhibition of vascular permeability increase induced by intradermally injected PAF in mice)
Five-week old male ddY mice were used. The test compound suspended in 0.5 methylcellulose suspension was administered orally 30 minutes before the Evans blue injection (0.125% solution in saline, 10 ml/kg, i.v.).
PAF (50 ng, 50 μl per site) was injected intradermally to the depilated back of the mice 5 minutes after the Evans blue injection.
(§2) The inhibitory activity of the test compound was monitored 30 minutes after the PAF injection by assessment of blueing reaction with Evans blue dye in mice skin.

[3] = tested on: vascular permeability increase induced by intradermally injected PAF; assay: Test 3: inhibition of vascular permeability increase induced by intradermally injected PAF in mice (test compound i.p.); assay type: in vivo, ddY mice; details: 10 mg/kg i.p., 15 minutes before Evans blue; PAF 50 ng intradermally; 30 minutes after PAF
Procedure: as §1
Six-week old male ddY mice were used. The test compound was administered intraperitoneally 15 minutes before the Evans blue injection (0.125% solution in saline, 0.2 ml/mouse, i.v.).
PAF (50 ng, 50 μl per size) was injected intradermally to the depilated back of the mice 5 minutes after the Evans blue injection.
as §2

[4] = tested on: synthetic PAF induced hypotension; assay: Test 2: inhibition of hypotensive effect induced by intravenously injected PAF in rats; assay type: in vivo, Sprague-Dowley rats; details: 3 minutes before PAF (1 μg/kg i.v.), anesthetized rats
Procedure: (Inhibition of hypotensive effect induced by intraveneously injected PAF in rats)
Seven-week old Sprague-Dowley rats were anesthetized with urethane (1 g/kg, i. p.). Catheters were introduced into the femoral artery and vein for the measurement of arterial pressure and the administration of the test compound, respectively. Blood pressure was recorded from femoral artery using a transducer coupled to the Biophysiograph 180 System (San-Ei Instrument Co., Ltd.). Inhibitory activity of the test compound was shown in the following Table as the inhibition percentage of the synthetic PAF induced hypotension. PAF was administered intravenously at a dose of 1 μg/kg. The test compound was administered intravenously 3 minutes before PAF injection.

Structure (SMILES): CSCCCC1NC(=O)[C@@H](Cc2cn(C)c3ccccc23)NC1=O (single isomer, unassigned) [Test compound 5]
- IC50 [1]: 0.55 µg/mL (≈ 1.59 µM)

Structure (SMILES): CSCC[C@H]1NC(=O)[C@@H](Cc2cn(C)c3ccccc23)NC1=O [Example 1, (3R,6R)-3-(1-methylindol-3-ylmethyl)-6-(2-methylthioethyl)piperazine-2,5-dione]
- IC50 [1]: 0.71 µg/mL (≈ 2.14 µM)

Structure (SMILES): CSCC[C@@H]1C(=O)N(C)[C@H](Cc2cn(C)c3ccccc23)C(=O)N1C [Example 4, (3R,6R)-1,4-dimethyl-3-(1-methylindol-3-ylmethyl)-6-(2-methylthioethyl)piperazine-2,5-dione]
- IC50 [1]: 0.84 µg/mL (≈ 2.34 µM)

Structure (SMILES): C[C@H](c1cn(C)c2ccccc12)[C@H]1NC(=O)[C@@H](Cc2ccccn2)NC1=O [Example 18, (3R,6R)-3-[(R)-1-(1-methylindol-3-yl)ethyl]-6-(2-pyridylmethyl)piperazine-2,5-dione]
- IC50 [1]: 0.16 µg/mL (≈ 0.441 µM)
- Inhibition of vascular permeability increase (%) [2]: 56.7%

Structure (SMILES): CC(C)C[C@H]1NC(=O)[C@@H](Cc2cn(C)c3ccccc23)NC1=O [Test compound 2]
- IC50 [1]: 1.04 µg/mL (≈ 3.32 µM)
- Inhibition of vascular permeability increase (%) [3]: 30%
- Inhibition maximum (%) of hypotensive effect ([4]; 10 mg/kg i.v.): 75%

Structure (SMILES): Cn1cc(C[C@H]2NC(=O)[C@@H](Cc3cn(C)c4ccccc34)NC2=O)c2ccccc21 [Test compound 7]
- IC50 [1]: 1.2 µg/mL (≈ 3 µM)

Structure (SMILES): CCCC[C@H]1NC(=O)[C@@H](Cc2cn(C)c3ccccc23)NC1=O [Test compound 8]
- IC50 [1]: 0.58 µg/mL (≈ 1.85 µM)

Structure (SMILES): CSCC[C@H]1NC(=O)[C@@H]([C@H](C)c2cccc3ccccc23)NC1=O [Test compound 9]
- IC50 [1]: 0.061 µg/mL (≈ 0.178 µM)
- Inhibition of vascular permeability increase (%) [3]: 40%
- Inhibition maximum (%) of hypotensive effect ([4]; 3 mg/kg i.v.): 51%

Structure (SMILES): CSCC[C@H]1NC(=O)[C@@H](Cc2cccc3ccccc23)NC1=O [Test compound 10]
- IC50 [1]: 0.48 µg/mL (≈ 1.46 µM)

Structure (SMILES): CSCC[C@H]1NC(=O)[C@@H](Cc2c3ccccc3cc3ccccc23)NC1=O [Test compound 11]
- IC50 [1]: 0.58 µg/mL (≈ 1.53 µM)

Structure (SMILES): CSCC[C@H]1NC(=O)[C@@H]([C@@H](C)c2cccc3ccccc23)NC1=O [Test compound 12]
- IC50 [1]: 0.65 µg/mL (≈ 1.9 µM)

Structure (SMILES): CSCC[C@H]1NC(=O)[C@@H](Cc2c(-c3ccccc3)n(C)c3ccccc23)NC1=O [Test compound 13]
- IC50 [1]: 0.72 µg/mL (≈ 1.77 µM)

Structure (SMILES): CCC[C@H]1NC(=O)[C@@H](Cc2cn(C)c3ccccc23)NC1=O [Test compound 14]
- IC50 [1]: 0.93 µg/mL (≈ 3.11 µM)

Structure (SMILES): CSCC[C@@H]1C(=O)N(C)[C@H]([C@H](C)c2cccc3ccccc23)C(=O)N1C [Test compound 16]
- IC50 [1]: 0.59 µg/mL (≈ 1.59 µM)
